# In US20040191811A1, “Methods for measuring levels of uridine-diphosphate-N-acetylglucosamine and activity of inhibitors thereof” (priority 2002, published 2004):
# Like-named read-outs stand apart in the source and are kept apart here.
# How the values were obtained:
# GFAT-beta = molecular target: T1, GFAT-beta (Homo sapiens, UniProt O94808); assay: GFAT-beta inhibition, microtiter plate glucosamine 6-phosphate assay; type: biochemical
# T1 construct: made in house; host or cells: SF9 insect cells (sonicated, centrifuged cell extract, not purified)
# T1 sequence (O94808 whole entry): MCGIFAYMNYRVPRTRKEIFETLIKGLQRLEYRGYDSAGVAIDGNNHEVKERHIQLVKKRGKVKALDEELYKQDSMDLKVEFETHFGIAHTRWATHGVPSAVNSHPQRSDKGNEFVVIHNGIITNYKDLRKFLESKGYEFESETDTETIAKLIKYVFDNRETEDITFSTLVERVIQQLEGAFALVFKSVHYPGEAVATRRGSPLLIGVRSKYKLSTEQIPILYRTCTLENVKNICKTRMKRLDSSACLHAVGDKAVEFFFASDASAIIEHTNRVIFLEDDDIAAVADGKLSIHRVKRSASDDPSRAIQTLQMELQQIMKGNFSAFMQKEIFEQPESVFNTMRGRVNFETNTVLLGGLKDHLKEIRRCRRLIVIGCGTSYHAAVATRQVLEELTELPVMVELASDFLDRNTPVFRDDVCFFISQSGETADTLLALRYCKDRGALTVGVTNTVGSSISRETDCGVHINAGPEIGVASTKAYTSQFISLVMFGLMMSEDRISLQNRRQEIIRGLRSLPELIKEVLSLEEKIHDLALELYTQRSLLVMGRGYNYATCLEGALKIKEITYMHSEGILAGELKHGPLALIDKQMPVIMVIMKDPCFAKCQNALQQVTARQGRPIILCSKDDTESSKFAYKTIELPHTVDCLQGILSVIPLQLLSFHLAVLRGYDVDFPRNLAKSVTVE
# Procedure: Stimulation of GFAT activity. […] For most testing, a 60-minute incubation at 37° C. is carried out in 96 well microtiter plates. To give the best heat transfer the plates are sealed with a Costar plate sealer and floated on a 37° C. water bath. Air bubbles are removed from the bottom of the plate to ensure proper heat transfer to all wells. […] A mixture of the incubation reagents is kept on ice and the enzyme is added to the mixture just before addition to the plate. Additional incubation mixture is kept on ice to add to standard and control samples. […] If test agents are to be used, 10 μl is added to the appropriate wells and the vehicle is added to the control wells before addition of the incubation mixture. 15 wells are left blank for addition of control and standard glucosamine 6-phosphate samples. After the incubation, 10 μl of the standards made up in the appropriate vehicle (DMSO) are added to the appropriate wells.
# GFAT-alpha = molecular target: T2, GFAT-alpha (Homo sapiens, UniProt Q06210); assay: GFAT-alpha inhibition, microtiter plate glucosamine 6-phosphate assay; type: biochemical; conditions: enzyme expressed in SF9 insect cells; glutamine 10 mM, fructose 6-phosphate 10 mM; 60 minutes at 37° C.
# T2 construct: made in house; host or cells: SF9 insect cells (sonicated, centrifuged cell extract, not purified)
# T2 sequence (Q06210 1-681 isoform Q06210-2): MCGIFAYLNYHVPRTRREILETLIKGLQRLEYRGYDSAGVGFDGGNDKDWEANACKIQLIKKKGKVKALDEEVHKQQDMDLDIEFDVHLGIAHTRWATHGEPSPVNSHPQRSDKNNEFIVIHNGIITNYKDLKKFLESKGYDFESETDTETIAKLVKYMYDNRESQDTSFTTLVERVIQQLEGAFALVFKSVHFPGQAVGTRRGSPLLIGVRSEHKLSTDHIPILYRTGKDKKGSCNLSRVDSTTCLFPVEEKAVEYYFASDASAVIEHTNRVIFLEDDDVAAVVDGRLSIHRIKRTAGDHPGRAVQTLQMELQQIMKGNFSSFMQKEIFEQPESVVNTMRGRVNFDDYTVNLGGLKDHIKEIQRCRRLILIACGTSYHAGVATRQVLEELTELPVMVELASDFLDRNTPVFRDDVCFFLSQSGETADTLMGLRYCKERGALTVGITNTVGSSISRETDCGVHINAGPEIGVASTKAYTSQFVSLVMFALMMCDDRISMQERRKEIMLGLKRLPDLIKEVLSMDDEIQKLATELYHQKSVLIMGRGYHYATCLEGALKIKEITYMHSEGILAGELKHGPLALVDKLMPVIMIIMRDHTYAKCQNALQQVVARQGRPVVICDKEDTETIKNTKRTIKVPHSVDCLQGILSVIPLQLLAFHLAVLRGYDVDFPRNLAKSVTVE
# Procedure: Enzyme preparation. GFAT-alpha (GenBank Accession No. M90516) and GFAT-beta (Accession No. AB016789) are cloned into pET12 and pEF-BOS C vectors (New England BioLabs) for transfection into SF9 and Hi5 insect cells, COS, type 293 cells, and E.coli. Endogenous activity for each cell line was also measured in non-transfected cells. The enzymes are expressed in each cell line by growing in large 24×24 cm plates and harvesting 20 hours after transfection. The media is removed and the plates are washed in 15 ml PBS. 1.5 ml of a lysis buffer (PBS 1×, KCl 50 mM, EDTA 10 mM, with protease inhibitors leupeptin 10 ug/ml, PMSF 20 ug/ml, A-protinin 30 ug/ml, and pepstatin 10 ug/ml) is added to each plate and the cells are removed using a large plastic cell scraper. […] The cell #/lysis volume is about 4×10^7cell/ml. The suspension is sonicated on ice (Branson sonicator setting 2.5 to 3) for 15 seconds using a microtip. The sonicated cell extracts are stored in microfuge tubes at −80° C. Before use, the extracts are centrifuged at 15000×g for 5 minutes at 4° C. Each enzyme preparation is titrated to determine the volume that gives between 20 to 30 umoles of glucosamine 6-phosphate in a reaction mixture in a 60-minute incubation at 37° C. (FIGS. 1A and 1B).
# Stimulation of GFAT activity. […] For most testing, a 60-minute incubation at 37° C. is carried out in 96 well microtiter plates. To give the best heat transfer the plates are sealed with a Costar plate sealer and floated on a 37° C. water bath. Air bubbles are removed from the bottom of the plate to ensure proper heat transfer to all wells. The 100 μl reaction volume consists of glutamine 10 mM, fructose 6-phosphate 10 mM, PBS 1×, EDTA 5 mM, DTT 1 mM and the enzyme preparation. A mixture of the incubation reagents is kept on ice and the enzyme is added to the mixture just before addition to the plate. Additional incubation mixture is kept on ice to add to standard and control samples. […] If test agents are to be used, 10 μl is added to the appropriate wells and the vehicle is added to the control wells before addition of the incubation mixture. […] A concentration range of 2.5 to 30 umoles is in the linear portion of the curve and covers the quantity of glucosamine 6-phosphate produced under the incubation conditions (FIG. 4). The cold mixture is added to the standard sample wells and the glucosamine 6-phosphate is then measured.
# Measurement of glucosamine 6-phosphate The reaction is started by adding the incubation mixture to the appropriate wells in a microtiter plate and placing the plate on a 37° C. water bath. […] The acetylated glucosamine is measured by the Morgan and Elson color reaction (Morgan. W. T. J. & Elson, L. A. (1934).Biochem. J. 28, 988). […]
# [1] = enzyme expressed in SF9 insect cells, glutamine 10 mM, fructose 6-phosphate 10 mM, 60 minutes at 37° C., read-out: IC50 for inhibition of GFAT-beta
IC50 (GFAT-beta; [1]),Compound,IC50 (GFAT-beta),IC50 (GFAT-alpha),times as much required to inhibit GFAT-beta compared with GFAT-alpha (GFAT-beta; ratio of IC50 GFAT-beta to IC50 GFAT-alpha)
,"[N-]=[N+]=CC(=O)CC[C@H](N)C(=O)O [DON, 6-diazo-5-oxo-L-norleucine]",18 µM,18 µM,
2.3 µM,"COC(=O)/C=C/C(=O)NC[C@H](N)C(=O)O [FMDP, N3-(-4-methoxyflumaroyl)-L-2,3-diaminopropanoic acid]",,4 µM,
0.27 µM,"N[C@@H](CNC(=O)CBr)C(=O)O [N3-(bromoacetyl)-L-2,3-diaminopropanoic acid]",,0.38 µM,

Compound,IC50 (GFAT-beta; [1]),IC50 (GFAT-beta),IC50 (GFAT-alpha),times as much required to inhibit GFAT-beta compared with GFAT-alpha (GFAT-beta; ratio of IC50 GFAT-beta to IC50 GFAT-alpha)
uridine-diphosphate-N-acetylglucosamine [UDP-N-acetylglucosamine],100 µM,,8 µM,more than 12 times
